Target: T1, GST-JAK2(808-1132) (Homo sapiens, UniProt O60674)
T1 construct: GST-JAK2(808-1132); purchased Invitrogen (Carlsbad, USA) #4288
Experiment: JAK2 kinase assay (Caliper mobility shift, LabChip 3000)
Format: biochemical
In short: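 Eight-point compound series (final 10–0.003 μM) tested on purchased GST-JAK2 kinase domain (808-1132). Peptide FITC-JAK3tide plus ATP reacted 60 min, 30 °C, then quenched with EDTA; turnover from charge-based separation of substrate and product.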

T1 sequence (O60674 808-1132): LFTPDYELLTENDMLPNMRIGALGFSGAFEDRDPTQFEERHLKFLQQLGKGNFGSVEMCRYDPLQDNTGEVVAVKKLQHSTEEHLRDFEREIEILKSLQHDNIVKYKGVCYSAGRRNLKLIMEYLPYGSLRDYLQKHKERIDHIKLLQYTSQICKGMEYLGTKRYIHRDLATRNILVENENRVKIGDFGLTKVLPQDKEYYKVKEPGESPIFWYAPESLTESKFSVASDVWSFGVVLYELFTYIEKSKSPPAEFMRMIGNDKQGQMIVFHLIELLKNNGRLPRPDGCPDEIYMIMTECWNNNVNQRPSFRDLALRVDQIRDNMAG

Structure (SMILES) | IC50 [nM]
Fc1cc(-n2ccc3cnc(Nc4ccc(CN5CCN(C6CC6)CC5)cc4)nc32)cc(F)c1CN1CCOCC1 [Example 329, [4-(4-Cyclopropyl-piperazin-1-ylmethyl)-phenyl]-[7-(3,5-difluoro-4-morpholin-4-ylmethyl-phenyl)-7H-pyrrolo[2,3-d]pyrimidin-2-yl]-amine] | 4
Cc1ccc(Nc2ncc3ccn(-c4cc(F)c(CN5CCOCC5)c(F)c4)c3n2)cc1 [Example 325, [7-(3,5-Difluoro-4-morpholin-4-ylmethyl-phenyl)-7H-pyrrolo[2,3-d]pyrimidin-2-yl]-p-tolyl-amine] | 25
CS(=O)(=O)c1ccc(-n2ccc3cnc(Nc4ccc5c(c4)OC(F)(F)C(F)(F)O5)nc32)cc1 [Example 14, [7-(4-Methanesulfonyl-phenyl)-7H-pyrrolo[2,3-d]pyrimidin-2-yl]-(2,2,3,3-tetrafluoro-2,3-dihydro-benzo[1,4]dioxin-6-yl)-amine] | 2100
CCc1ccc(-n2ccc3cnc(Nc4ccc(N5CCN(C)CC5)nc4)nc32)cc1 [Example 438, [7-(4-Ethyl-phenyl)-7H-pyrrolo[2,3-d]pyrimidin-2-yl]-[6-(4-methyl-piperazin-1-yl)-pyridin-3-yl]-amine] | ≤ 3
Cc1ccc(Nc2ncc3ccn(-c4cc(F)c(CN5CCNC(=O)C5)c(F)c4)c3n2)cc1CN1CCOCC1 [Example 344, 4-{2,6-Difluoro-4-[2-(4-methyl-3-morpholin-4-ylmethyl-phenylamino)-pyrrolo[2,3-d]pyrimidin-7-yl]-benzyl}-piperazin-2-one] | ≤ 3
OC1CCN(Cc2cc(Nc3ncc4ccn(-c5cc(F)c(CN6CCOCC6)c(F)c5)c4n3)ccn2)C1 (racemic) [Example 416, 1-{4-[7-(3,5-Difluoro-4-morpholin-4-ylmethyl-phenyl)-7H-pyrrolo[2,3-d]pyrimidin-2-ylamino]-pyridin-2-ylmethyl}-pyrrolidin-3-ol] | ≤ 3
COc1cc(C)c(Nc2ncc3ccn(-c4ccc(S(C)(=O)=O)cc4)c3n2)cc1OC [Example 11, (4,5-Dimethoxy-2-methyl-phenyl)-[7-(4-methanesulfonyl-phenyl)-7H-pyrrolo[2,3-d]pyrimidin-2-yl]-amine] | 190
O=C1NC(c2ccc(Nc3ncc4ccn(-c5cc(F)c(CN6CCOCC6)c(F)c5)c4n3)cc2)CN2CCCCC12 (stereo not shown) [Example 389, 3-{4-[7-(3,5-Difluoro-4-morpholin-4-ylmethyl-phenyl)-7H-pyrrolo[2,3-d]pyrimidin-2-ylamino]-phenyl}-hexahydro-pyrido[1,2-a]pyrazin-1-one] | ≤ 3
O=C(c1ccc(-n2ccc3cnc(Nc4ccc(C(F)(F)F)nc4)nc32)cc1F)N1CCOCC1 [Example 227, {2-Fluoro-4-[2-(6-trifluoromethyl-pyridin-3-ylamino)-pyrrolo[2,3-d]pyrimidin-7-yl]-phenyl}-morpholin-4-yl-methanone] | 41.5
CN1CCN(c2ccc(Nc3ncc4ccn(-c5ccc(C(O)C6CC6)cc5)c4n3)cn2)CC1 (stereo not shown) [Example 277, Cyclopropyl-(4-{2-[6-(4-methyl-piperazin-1-yl)-pyridin-3-ylamino]-pyrrolo[2,3-d]pyrimidin-7-yl}-phenyl)-methanol] | 8.3
CCN1CCN(c2ccc(Nc3ncc4ccn(-c5ccc(CC(=O)N6CCN(C)CC6)cc5)c4n3)cc2C)CC1 [Example 284, 2-(4-{2-[4-(4-Ethyl-piperazin-1-yl)-3-methyl-phenylamino]-pyrrolo[2,3-d]pyrimidin-7-yl}-phenyl)-1-(4-methyl-piperazin-1-yl)-ethanone] | 3.7
O=C(c1ccc(-n2ccc3cnc(Nc4ccc(CN5CCNCC5)cc4)nc32)cc1F)N1CCOCC1 [Example 313, {2-Fluoro-4-[2-(4-piperazin-1-ylmethyl-phenylamino)-pyrrolo[2,3-d]pyrimidin-7-yl]-phenyl}-morpholin-4-yl-methanone] | 3.7
CN1CCN(c2cccc(Nc3ncc4ccn(-c5cc(F)c(C(=O)N6CCOCC6)c(F)c5)c4n3)c2)CC1 [Example 207, (2,6-Difluoro-4-{2-[3-(4-methyl-piperazin-1-yl)-phenylamino]-pyrrolo[2,3-d]pyrimidin-7-yl}-phenyl)-morpholin-4-yl-methanone] | < 3
CC(C)(C)OC(=O)N1CCCC1c1ccc(Nc2ncc3ccn(-c4ccc(S(C)(=O)=O)cc4)c3n2)cc1 (stereo not shown) [Example 46, 2-{4-[7-(4-Methanesulfonyl-phenyl)-7H-pyrrolo[2,3-d]pyrimidin-2-ylamino]-phenyl}-pyrrolidine-1-carboxylic acid tert-butyl ester] | 38
Fc1cc(-n2ccc3cnc(Nc4cnn(C5CCNCC5)c4)nc32)cc(F)c1CN1CCOCC1 [Example 321, [7-(3,5-Difluoro-4-morpholin-4-ylmethyl-phenyl)-7H-pyrrolo[2,3-d]pyrimidin-2-yl]-(1-piperidin-4-yl-1H-pyrazol-4-yl)-amine] | < 3

Second part, the compound after the results:

IC50 [nM] | Structure (SMILES)
43 | CN1CCN(c2ccc(Nc3ncc4ccn(-c5cc(F)c(C#N)c(F)c5)c4n3)cn2)CC1 [Example 445, 2,6-Difluoro-4-{2-[6-(4-methyl-piperazin-1-yl)-pyridin-3-ylamino]-pyrrolo[2,3-d]pyrimidin-7-yl}-benzonitrile]
< 3 | Cc1ccc(Nc2ncc3ccn(-c4ccc(C(=O)N5CCOCC5)c(F)c4)c3n2)cc1CN1CCOCC1 [Example 327, {2-Fluoro-4-[2-(4-methyl-3-morpholin-4-ylmethyl-phenylamino)-pyrrolo[2,3-d]pyrimidin-7-yl]-phenyl}-morpholin-4-yl-methanone]
19 | Cc1cc(C#N)ccc1-n1ccc2cnc(Nc3ccc(N4CCN(C)CC4)nc3)nc21 [Example 439, 3-Methyl-4-{2-[6-(4-methyl-piperazin-1-yl)-pyridin-3-ylamino]-pyrrolo[2,3-d]pyrimidin-7-yl}-benzonitrile]
170 | COc1ccc(Nc2ncc3ccn(-c4ccc(S(C)(=O)=O)cc4)c3n2)c(OC)c1 [Example 22, (2,4-Dimethoxy-phenyl)-[7-(4-methanesulfonyl-phenyl)-7H-pyrrolo[2,3-d]pyrimidin-2-yl]-amine]
< 3 | O=C(c1c(F)cc(-n2ccc3cnc(Nc4ccc(CN5CCOCC5)cc4)nc32)cc1F)N1CCOCC1 [Example 206, {2,6-Difluoro-4-[2-(4-morpholin-4-ylmethyl-phenylamino)-pyrrolo[2,3-d]pyrimidin-7-yl]-phenyl}-morpholin-4-yl-methanone]
≤ 3 | COC(C)c1ccc(-n2ccc3cnc(Nc4ccc(N5CCN(C)CC5)nc4)nc32)cc1 (racemic) [Example 449, {7-[4-(1-Methoxy-ethyl)-phenyl]-7H-pyrrolo[2,3-d]pyrimidin-2-yl}-[6-(4-methyl-piperazin-1-yl)-pyridin-3-yl]-amine]
120 | CN1CCN(c2ncc(Nc3ncc4ccn(-c5ccc(S(C)(=O)=O)cc5)c4n3)cn2)CC1 [Example 276, [7-(4-Methanesulfonyl-phenyl)-7H-pyrrolo[2,3-d]pyrimidin-2-yl]-[2-(4-methyl-piperazin-1-yl)-pyrimidin-5-yl]-amine]
≤ 3 | Cc1ccc(Nc2ncc3ccn(-c4cc(F)c(CN5CCOCC5)c(F)c4)c3n2)cc1COC1CNC1 [Example 420, [3-(Azetidin-3-yloxymethyl)-4-methyl-phenyl]-[7-(3,5-difluoro-4-morpholin-4-ylmethyl-phenyl)-7H-pyrrolo[2,3-d]pyrimidin-2-yl]-amine]
73 | CCN1CCN(Cc2ccc(Nc3ncc4ccn(-c5cc(F)c(CN6CCOCC6)c(F)c5)c4n3)nc2)CC1 [Example 316, [7-(3,5-Difluoro-4-morpholin-4-ylmethyl-phenyl)-7H-pyrrolo[2,3-d]pyrimidin-2-yl]-[5-(4-ethyl-piperazin-1-ylmethyl)-pyridin-2-yl]-amine]
< 3 | COc1cc(Nc2ncc3ccn(-c4ccc(C(=O)NC(C)(C)C)cc4)c3n2)cc(OC)c1OC [Example 9, N-tert-Butyl-4-[2-(3,4,5-trimethoxy-phenylamino)-pyrrolo[2,3-d]pyrimidin-7-yl]-benzamide]
9.9 | Cc1ccc(Nc2ncc3ccn(-c4ccc(C(=O)N5CCOCC5)c(F)c4)c3n2)cc1CN1CCNC2(CC2)C1 [Example 374, (4-{2-[3-(4,7-Diaza-spiro[2.5]oct-7-ylmethyl)-4-methyl-phenylamino]-pyrrolo[2,3-d]pyrimidin-7-yl}-2-fluoro-phenyl)-morpholin-4-yl-methanone]
3.3 | Cc1ccc(Nc2ncc3ccn(-c4ccc(C(=O)N5CCOCC5)cc4)c3n2)cc1CN1CCN(C)CC1 [Example 437, (4-{2-[4-Methyl-3-(4-methyl-piperazin-1-ylmethyl)-phenylamino]-pyrrolo[2,3-d]pyrimidin-7-yl}-phenyl)-morpholin-4-yl-methanone]
6.2 | CN1CCN(c2ccc(Nc3ncc4ccn(-c5ccc(S(=O)(=O)NC(C)(C)C)cc5)c4n3)cc2)CC1 [Example 348, N-tert-Butyl-4-{2-[4-(4-methyl-piperazin-1-yl)-phenylamino]-pyrrolo[2,3-d]pyrimidin-7-yl}-benzenesulfonamide]
< 3 | CC(=O)N1CCN(Cc2ccc(Nc3ncc4ccn(-c5cc(F)c(CN6CCOCC6)c(F)c5)c4n3)cc2)CC1 [Example 318, 1-(4-{4-[7-(3,5-Difluoro-4-morpholin-4-ylmethyl-phenyl)-7H-pyrrolo[2,3-d]pyrimidin-2-ylamino]-benzyl}-piperazin-1-yl)-ethanone]
5 | CN1CCN(Cc2ccc(Nc3ncc4ccn(-c5cc(F)c(C(=O)N6CCOCC6)c(F)c5)c4n3)cc2)CC1 [Example 205, (2,6-Difluoro-4-{2-[4-(4-methyl-piperazin-1-ylmethyl)-phenylamino]-pyrrolo[2,3-d]pyrimidin-7-yl}-phenyl)-morpholin-4-yl-methanone]
73 | CCN1CCCC1CNC(=O)c1ccc(-n2ccc3cnc(Nc4ccc(F)cc4)nc32)cc1 (stereo not shown) [Example 63, N-(1-Ethyl-pyrrolidin-2-ylmethyl)-4-[2-(4-fluoro-phenylamino)-pyrrolo[2,3-d]pyrimidin-7-yl]-benzamide]
